Measurements taken from patent US20100029619A1, “FUSED HETEROCYCLIC COMPOUND” (TAKEDA PHARMACEUTICAL COMPANY LIMTED, priority 2006, published 2010).
Structures can show the parent of a compound that is named as a salt.

| Compound | melting point |
| --- | --- |
| O=C(Nc1cn2cc(Cl)ccc2n1)c1ccc(C2(C(=O)O)CCCCC2)cc1 [Example 192, 1-(4-{[(6-chloroimidazo[1,2-a]pyridin-2-yl)amino]carbonyl}phenyl)cyclohexanecarboxylic acid] | 288 °C |
| CC(C)(C)c1ccc(C(=O)Nc2cn3nc(-n4cnc(Cl)c4Cl)ccc3n2)cc1 [Example 146, 4-tert-butyl-N-[6-(4,5-dichloro-1H-imidazol-1-yl)imidazo[1,2-b]pyridazin-2-yl]benzamide] | 281 to 282 °C |
| CC(C)(CO)c1ccc(C(=O)Nc2cn3cc(C(F)(F)F)ccc3n2)cc1 [Example 461, 4-(2-hydroxy-1,1-dimethylethyl)-N-[6-(trifluoromethyl)imidazo[1,2-a]pyridin-2-yl]benzamide] | 227 to 229 °C |
| O=C(Nc1cn2cc(Cl)ccc2n1)c1ccc(C2(C(=O)O)CCC2)cc1 [Example 190, 1-{4-[(6-chloroimidazo[1,2-a]pyridin-2-yl)carbamoyl]phenyl}cyclobutanecarboxylic acid] | 317.7 °C (dec.) |
| CC(=O)NCC(C)(C)c1ccc(C(=O)Nc2cn3cc(Cl)ccc3n2)cc1 [Example 122, 4-[2-(acetylamino)-1,1-dimethylethyl]-N-(6-chloroimidazo[1,2-a]pyridin-2-yl)benzamide] | 220 to 222 °C |
| CC(C)(C)c1ccc(C(=O)Nc2cn3c4c(ccc3n2)OCC4)cn1 [Example 17, 6-tert-butyl-N-(1,2-dihydrofuro[2,3-e]imidazo[1,2-a]pyridin-7-yl)nicotinamide] | 246 to 248 °C |
| CNC(=O)CC(C)(C)c1ccc(C(=O)Nc2cn3cc(Cl)ccc3n2)cc1 [Example 128, N-(6-chloroimidazo[1,2-a]pyridin-2-yl)-4-[1,1-dimethyl-3-(methylamino)-3-oxopropyl]benzamide] | 228 to 230 °C |
| CC(C)(C(=O)O)c1ccc(C(=O)Nc2cn3cc(-c4cn[nH]c4)ccc3n2)cc1 [Example 29, 2-methyl-2-(4-{[6-(1H-pyrazol-4-yl)imidazo[1,2-a]pyridin-2-yl]carbamoyl}phenyl)propanoic acid] | 306 to 307 °C |
| CC(C)(C(=O)O)c1ccc(C(=O)Nc2cn3cc(-c4ccoc4)ccc3n2)cc1 [Example 27, 2-methyl-2-(4-{[6-(3-furyl)imidazo[1,2-a]pyridin-2-yl]carbamoyl}phenyl)propanoic acid] | 307 to 309 °C |
| CC(C)(CCc1nnn[nH]1)c1ccc(C(=O)Nc2cn3cc(Cl)ccc3n2)cc1 [Example 36, N-(6-chloroimidazo[1,2-a]pyridin-2-yl)-4-[1,1-dimethyl-3-(1H-tetrazol-5-yl)propyl]benzamide] | 250 to 251 °C |
| Cc1ncc(-c2ccc3nc(NC(=O)c4ccc(C(C)(C)C)cc4)cn3n2)[nH]1 (as salt: hydrochloride) [Example 156, 4-tert-butyl-N-[6-(2-methyl-1H-imidazol-5-yl)imidazo[1,2-b]pyridazin-2-yl]benzamide hydrochloride] | 295 to 297 °C (dec.) |
| CC(C)(C(=O)NCCC#N)c1ccc(C(=O)Nc2cn3cc(Cl)ccc3n2)cc1 [Example 35, N-(6-chloroimidazo[1,2-a]pyridin-2-yl)-4-{2-[(2-cyanoethyl)amino]-1,1-dimethyl-2-oxoethyl}benzamide] | 208 to 209 °C |
| CC(C)(C)c1ccc(C(=O)Nc2cn3nc(NCc4ccccn4)ccc3n2)cc1 [Example 161, 4-tert-butyl-N-{6-[(pyridin-2-ylmethyl)amino]imidazo[1,2-b]pyridazin-2-yl}benzamide] | 196 to 197 °C |
| COC(=O)C(C)(C)c1ccc(C(=O)Nc2cn3cc(C)ccc3n2)cc1 [Example 19, methyl 2-methyl-2-{4-[(6-methylimidazo[1,2-a]pyridin-2-yl)carbamoyl]phenyl}propanoate] | 228 to 230 °C |
| CC(C)(CCc1nnn[nH]1)c1ccc(C(=O)Nc2cn3cc(-n4ccnc4)ccc3n2)cc1 [Example 46, 4-[1,1-dimethyl-3-(1H-tetrazol-5-yl)propyl]-N-[6-(1H-imidazol-1-yl)imidazo[1,2-a]pyridin-2-yl]benzamide] | 266 to 267 °C |
| CC(C)c1ccc(C(=O)Nc2cn3cc(-n4ccnc4)ccc3n2)cc1 [Example 97, N-[6-(1H-imidazol-1-yl)imidazo[1,2-a]pyridin-2-yl]-4-isopropylbenzamide] | 291 to 293 °C |
| CC(C)(C)c1ccc(C(=O)Nc2cn3nc(NCc4cccnc4)ccc3n2)cc1 [Example 160, 4-tert-butyl-N-{6-[(pyridin-3-ylmethyl)amino]imidazo[1,2-b]pyridazin-2-yl}benzamide] | 232 to 233 °C |
| O=C(Nc1cn2cc(Cl)ccc2n1)c1ccc(C2(C(=O)O)CC2)cc1 [Example 189, 1-{4-[(6-chloroimidazo[1,2-a]pyridin-2-yl)carbamoyl]phenyl}cyclopropanecarboxylic acid] | 330 to 331 °C |
| CC(C)(C(=O)NCC#N)c1ccc(C(=O)Nc2cn3cc(Cl)ccc3n2)cc1 [Example 34, N-(6-chloroimidazo[1,2-a]pyridin-2-yl)-4-{2-[(cyanomethyl)amino]-cyano-1,1-dimethyl-2-oxoethyl}benzamide] | 268 to 269 °C |

| Compound | melting point |
| --- | --- |
| CC(=O)NCC(C)(C)c1ccc(C(=O)Nc2cn3cc(-n4ccnc4)ccc3n2)cc1 [Example 135, 4-[2-(acetylamino)-1,1-dimethylethyl]-N-[6-(1H-imidazol-1-yl)imidazo[1,2-a]pyridin-2-yl]benzamide] | 242 to 244 °C |
| CC(C)(C)c1ccc(C(=O)Nc2cn3nc(-n4cnc(CO)c4)ccc3n2)cc1 [Example 145, 4-tert-butyl-N-{6-[4-(hydroxymethyl)-1H-imidazol-1-yl]imidazo[1,2-b]pyridazin-2-yl}benzamide] | 298 to 301 °C |
| CC(C)(C#N)c1ccc(C(=O)Nc2cn3cc(C(F)(F)F)ccc3n2)cc1 [Example 455, 4-(1-cyano-1-methylethyl)-N-[6-(trifluoromethyl)imidazo[1,2-a]pyridin-2-yl]benzamide] | 230 to 231 °C |
| COC(=O)C(C)(C)c1ccc(C(=O)Nc2cn3cc(-c4ccoc4)ccc3n2)cc1 [Example 26, methyl 2-methyl-2-(4-{[6-(3-furyl)imidazo[1,2-a]pyridin-2-yl]carbamoyl}phenyl)propanoate] | 202 to 203 °C |
| CC(C)(C)c1ccc(C(=O)Nc2cn3cc(C(F)(F)F)ccc3n2)cc1 [Example 452, 4-tert-butyl-N-[6-(trifluoromethyl)imidazo[1,2-a]pyridin-2-yl]benzamide] | 234 to 235 °C |
| CC(C)(CO)c1ccc(C(=O)Nc2cn3cc(-c4cn[nH]c4)ccc3n2)cc1 [Example 464, 4-(2-hydroxy-1,1-dimethylethyl)-N-[6-(1H-pyrazol-4-yl)imidazo[1,2-a]pyridin-2-yl]benzamide] | 293 to 296 °C |
| CC(C)(CNC(=O)Cc1cnc[nH]1)c1ccc(C(=O)Nc2cn3cc(Cl)ccc3n2)cc1 [Example 451, N-(6-chloroimidazo[1,2-a]pyridin-2-yl)-4-{2-[(1H-imidazol-5-ylacetyl)amino]-1,1-dimethylethyl}benzamide] | 270 °C (dec.) |
| CC(C)(C)c1ccc(C(=O)Nc2cn3nc(NC4CCCCC4)ccc3n2)cc1 [Example 164, 4-tert-butyl-N-[6-(cyclohexylamino)imidazo[1,2-b]pyridazin-2-yl]benzamide] | 296 to 297 °C |
| CC(C)(C)c1ccc(C(=O)Nc2cn3nc(N)ccc3n2)cc1.Cl | 312 to 313 °C |
| Cc1cccc2nc(NC(=O)c3ccc(C(C)(C)C(=O)O)cc3)cn12 [Example 186, 2-methyl-2-{4-[(5-methylimidazo[1,2-a]pyridin-2-yl)carbamoyl]phenyl}propanoic acid] | 282 to 283 °C |
| COC(=O)C(C)(C)c1ccc(C(=O)Nc2cn3cc(I)ccc3n2)cc1 [Example 23, methyl 2-{4-[(6-iodoimidazo[1,2-a]pyridin-2-yl)carbamoyl]phenyl}-2-methylpropanoate] | 234 to 235 °C |
| CC(C)(C)c1ccc(C(=O)Nc2cn3nc(-n4ccnc4)ccc3n2)cc1 (as salt: hydrochloride) [Example 141, 4-tert-butyl-N-[6-(1H-imidazol-1-yl)imidazo[1,2-b]pyridazin-2-yl]benzamide dihydrochloride] | 298 to 300 °C |
| CC(C)(CCc1noc(=O)[nH]1)c1ccc(C(=O)Nc2cn3cc(C(F)(F)F)ccc3n2)cc1 [Example 447, 4-[1,1-dimethyl-3-(5-oxo-4,5-dihydro-1,2,4-oxadiazol-3-yl)propyl]-N-[6-(trifluoromethyl)imidazo[1,2-a]pyridin-2-yl]benzamide] | 268 to 270 °C |
| CC(C)(C)c1ccc(C(=O)Nc2cn3nc(NCCO)ccc3n2)cc1 [Example 169, 4-tert-butyl-N-{6-[(2-hydroxyethyl)amino]imidazo[1,2-b]pyridazin-2-yl}benzamide] | 231 to 233 °C |
| CC(C)(CC(=O)O)c1ccc(C(=O)Nc2cn3cc(Cl)ccc3n2)cc1 [Example 117, 3-(4-{[(6-chloroimidazo[1,2-a]pyridin-2-yl)amino]carbonyl}phenyl)-3-methylbutanoic acid] | 304 to 306 °C (dec.) |
| CCNC(=O)C(C)(C)c1ccc(C(=O)Nc2cn3cc(Cl)ccc3n2)cc1 [Example 127, N-(6-chloroimidazo[1,2-a]pyridin-2-yl)-4-[2-(ethylamino)-1,1-dimethyl-2-oxoethyl]benzamide] | 228 to 230 °C |
| O=C(Nc1cn2cc(Cl)ccc2n1)c1ccc(C2(C(=O)O)CCCC2)cc1 [Example 191, 1-{4-[(6-chloroimidazo[1,2-a]pyridin-2-yl)carbamoyl]phenyl}cyclopentanecarboxylic acid] | 313 °C (dec.) |
| Cc1cccc2nc(NC(=O)c3ccc(C(C)(C)CCC(=O)O)cc3)cn12 [Example 187, 4-methyl-4-(4-{[(5-methylimidazo[1,2-a]pyridin-2-yl)amino]carbonyl}phenyl)pentanoic acid] | 260 °C |
| Cc1ccc2nc(NC(=O)c3ccc(C(C)(C)CCc4nnn[nH]4)cc3)cn2c1 [Example 439, 4-[1,1-dimethyl-3-(1H-tetrazol-5-yl)propyl]-N-(6-methylimidazo[1,2-a]pyridin-2-yl)benzamide] | 245 to 246 °C |
